This is an account of results in publication PMC12778052 (Science Advances, 2026).

For data set [1], the system named is HT1376 cells. Kind of data set: In vitro binding of [^68Ga]AJ647 to HT1376 cells. It counts as cell-based. The following applies: 1 × 10^6 cells, ~1 μCi, 30 min, 4°C, means ± SD, n = 4. On the procedure: (§1) In vitro binding of [^68Ga]AJ647 to T24, SCaBER, RT112, UC9, UC14, and HT1376 cells was determined by incubating 1 × 10^6 cells with ~1 μCi of [^68Ga]AJ647 for 30 min at 4°C. After incubation, cells were washed three times with ice-cold PBS containing 0.1% Tween 20 and counted on an automated gamma counter. All cell radioactivity uptake studies were performed in quadruplicate for each cell line and repeated three times.

The target in a further data set is T1, human Nectin-4 (Homo sapiens, UniProt Q96NY8).
T1 construct: purchased R&D Systems 2659-N4-050
T1 sequence (Q96NY8 32-349 limits assumed): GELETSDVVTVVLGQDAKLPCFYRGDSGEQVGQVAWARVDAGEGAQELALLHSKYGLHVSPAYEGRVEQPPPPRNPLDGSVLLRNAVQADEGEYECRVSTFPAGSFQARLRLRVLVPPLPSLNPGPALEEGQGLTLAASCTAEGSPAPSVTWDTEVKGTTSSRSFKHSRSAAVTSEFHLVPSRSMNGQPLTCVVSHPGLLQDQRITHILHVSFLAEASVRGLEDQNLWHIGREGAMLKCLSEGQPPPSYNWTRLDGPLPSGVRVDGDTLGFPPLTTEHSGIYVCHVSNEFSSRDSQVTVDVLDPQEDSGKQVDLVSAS
Kind of data set: SPR affinity for recombinant human Nectin-4. The format is binding. The note with it: human Nectin-4. As for the experimental part:
The affinity of AJ647 for human and mouse Nectin-4 recombinant proteins was evaluated by SPR. The experiments were conducted using a Biacore T200 instrument with a CM5 chip at 25°C. The ligands used were His-tagged human Nectin-4 (R&D Systems, catalog no. 2659-N4-050, 44 kDa, 0.2 mg/ml stock concentration) and mouse Nectin-4 proteins (R&D Systems, catalog no. 3116-N4-050, 45 kDa, 0.2 mg/ml stock concentration), which were immobilized onto the CM5 chip. AJ647 (3057.5 Da, 10 mM stock concentration) was used as the analyte, which flowed over the ligand-immobilized surface. FC2 and FC4 was used as the experimental flow cell, while FC1 and FC3 served as the reference. An anti-His antibody (1 mg/ml stock concentration) was immobilized on all flow cells using standard amine coupling chemistry. […] Human Nectin-4 was captured onto FC2 at a level of ~600 RU, with a 1:20 dilution and 10 μg/ml diluted concentration in PBS-P. Mouse Nectin-4 was captured onto FC4 at a level of 600 RU, with a 1:20 dilution and 10 μg/ml diluted concentration in PBS-P. The theoretical maximum response (Rmax ) values were calculated on the basis of the captured response values (table S1), assuming a 1:1 interaction mechanism. […] All association and dissociation kinetics were evaluated by 1:1 kinetics model fitting.

The test system of the next data set is UC9 cells. Put plainly: In vitro binding of [^68Ga]AJ647 to UC9 cells. It counts as cell-based. The following applies: 1 × 10^6 cells, ~1 μCi, 30 min, 4°C, means ± SD, n = 4. As for the experimental part:
as §1

Data set [2] deals with SCaBER cells. Put plainly: In vitro binding of [^68Ga]AJ647 to SCaBER cells. The format is cell-based. The following applies: 1 × 10^6 cells, ~1 μCi, 30 min, 4°C, means ± SD, n = 4. As for the experimental part: as §1
The test system of another data set is HT1376 tumors. Kind of data set: Pilot in vivo EV effect on tumor uptake of [^68Ga]AJ647, HT1376 tumors. The following applies: EV 20 mg/kg i.v. single dose, 24 hours before tracer, ex vivo 60 min, n = 5. On the set-up: species or system NSG mice. On the procedure: Male NSG mice were implanted subcutaneously with HT1376 and SCaBER cells (4 million each) on the right and left rostral ends, respectively. On day 25 after cell inoculation (average tumor volume, 200 ± 35 mm^3), mice were randomized and treated with a single dose of either saline or EV ADC (20 mg/kg) injected intravenously (volume not exceeding 300 μl) or with 200 μl of saline (n = 7 per group). Twenty-four hours following the EV dose, [^68Ga]AJ647 PET scans (n = 2 per group) were acquired, and ex vivo biodistribution (n = 5 per group) was performed using the protocols mentioned above.

Data set [3] deals with SCaBER cells. Put plainly: [^68Ga]AJ647 binding after EV preincubation, SCaBER cells. It counts as cell-based. The note with it: EV 60 nM preincubated 30 min, P < 0.0001. As for the experimental part:
(§2) An FITC analog of EV was made using the manufacturer’s recommended protocol (Thermo Fisher Scientific, no. 46409). Briefly, 1 mg of EV was incubated with FITC-NHS ester at a 5:1 molar ratio overnight at 4°C at 0.1 M borate buffer (pH 8.0). Excess unbound FITC-NHS ester was washed off by performing buffer exchange with 1× PBS using three rounds of ultracentrifugation at 4000g for 10 min (3-kDa molecular weight cutoff filter, Amicon, no. UFC900308). The effect of nonradioactive AJ647 on EV binding to Nectin-4 was assessed by incubating HT1376 cells at varying concentrations (5.4 μM to 0.01 nM using a serial dilution) of AJ647 for 30 min at 4°C. Unbound AJ647 was washed off using 3 ml of cold PBS. Cells were incubated with EV-FITC for 30 min at 4°C. Excess EV-FITC was washed off using 3 ml of cold PBS. The mean fluorescence intensity was measured using a flow cytometer, and data are reported as the percentage of 0 nM AJ647. For the effect of EV on [^68Ga]AJ647 binding, EV was used at concentrations of 90 to 0.04 nM using serial dilutions for 30 min at 4°C. Unbound EV was washed off using cold PBS. Then, cells were incubated with 1 μCi of [^68Ga]AJ647 for an additional 30 min. Excess [^68Ga]AJ647 was washed off three times with cold PBS. Samples were read in an automated gamma counter, and data are reported as the percentage of 1-μCi standard counts.

The conditions of data set [4]: 1.25 mg/kg dose level; cited from earlier work. The source says: Focusing on EV, an FDA-approved ADC targeting Nectin-4 ([11]), we aimed to test whether PET-measured target engagement (TE) could better define the relationships among dose, exposure, and therapeutic response. […] Adjustments in the dosage were more ...
The subject of data set [5] is HT1376 cells. Put plainly: [^68Ga]AJ647 binding after EV preincubation, HT1376 cells. The note with it: EV 60 nM preincubated 30 min, P < 0.0001. The format is cell-based. On the procedure: as §2

The term koff denotes the rate constant with which the complex falls apart. For `CSCC[C@@H]1NC(=O)[C@@H]2CSCCC(=O)N3CN(CN(C3)C(=O)CCSC[C@H](NC(=O)CCOCCOCCOCCOCCOCCOCCOCCOCCOCCOCCOCCOCCNC(=O)CN3CCN(CC(=O)O)CCN(CC(=O)O)CC3)C(=O)N3CCC[C@H]3C(=O)N[C@@H](Cc3cccc4ccccc34)C(=O)N[C@@H](CC(=O)O)C(=O)N2)C(=O)CCSC[C@@H](C(N)=O)NC(=O)[C@H](Cc2c[nH]c3ccccc23)NC(=O)[C@@H]2C[C@@H](O)CN2C(=O)[C@@H]2CCCN2C(=O)[C@H]([C@@H](C)O)NC(=O)[C@H](CO)NC(=O)[C@H](Cc2c[nH]c3ccccc23)NC(=O)[C@@H](CC(=O)O)NC(=O)[C@H](CCCCNC(=N)N)NC1=O` [[^68Ga]AJ647, metal not drawn], the “[^68Ga]AJ647 uptake” value is on record as 6.5 ± 0.52 %IA with HT1376 cells [1], 2.2 ± 0.48 %IA in the data set with UC9 cells and 1.6 ± 0.13 %IA in the data set with SCaBER cells [2]. Moreover, the off-rate (koff) on human Nectin-4 came to 0.0106 ± 0.00159 s⁻¹.

Turning to enfortumab vedotin [EV], in the data set with HT1376 tumors, the “reduction in [^68Ga]AJ647 tumor uptake vs saline controls” value was found to be 84%. Moreover, the “effect on [^68Ga]AJ647 binding” value with SCaBER cells [3] and in the data set on HT1376 cells [5] was “significantly reduced [^68Ga]AJ647 binding” throughout. Moreover, in data set [4], the “patients needing dosage adjustments” value was “more than 32%”.
